Data reported in PubChem BioAssay AID1918993 (Molecular Pharmacology Branch, DTP, NCI, 2023).

Test system: 233499-124-R-J3-PDC complex spheroid growth
Test: Anticancer human tumor 233499-124-R-J3-PDC patient-derived colon adenocarcinoma cell line growth inhibition [AhR]
Settings: for IC50: curve of first compound; for viability, T/C: stronger effect = lower value
Method in brief: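 Spheroids combined tumor cells with HUVEC endothelial cells and human MSCs as stroma. AhR antagonists were paired with standard or investigational drugs, each dosed in half-log steps down from near clinical Cmax, or from 10 microM where Cmax was unknown.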

[1] = second compound 0.1 µM, first compound 0.0316 µM
[2] = second compound 0.1 µM, first compound 0.1 µM
[3] = second compound 0.1 µM, first compound 0.316 µM
[4] = second compound 0.1 µM, first compound 1 µM
[5] = second compound 0.1 µM, first compound 3.16 µM
[6] = second compound 0.1 µM, first compound 10 µM
[7] = second compound 0.316 µM, first compound 0.0316 µM
[8] = second compound 0.316 µM, first compound 0.1 µM
[9] = second compound 0.316 µM, first compound 0.316 µM
[10] = second compound 0.316 µM, first compound 1 µM
[11] = second compound 0.316 µM, first compound 3.16 µM
[12] = second compound 0.316 µM, first compound 10 µM
[13] = second compound 1 µM, first compound 0.0316 µM
[14] = second compound 1 µM, first compound 0.1 µM
[15] = second compound 1 µM, first compound 0.316 µM
[16] = second compound 1 µM, first compound 1 µM
[17] = second compound 1 µM, first compound 3.16 µM
[18] = second compound 1 µM, first compound 10 µM
[19] = second compound 3.16 µM, first compound 0.0316 µM
[20] = second compound 3.16 µM, first compound 0.1 µM
[21] = second compound 3.16 µM, first compound 0.316 µM
[22] = second compound 3.16 µM, first compound 1 µM
[23] = second compound 3.16 µM, first compound 3.16 µM
[24] = second compound 3.16 µM, first compound 10 µM
[25] = second compound 10 µM, first compound 0.0316 µM
[26] = second compound 10 µM, first compound 0.1 µM
[27] = second compound 10 µM, first compound 0.316 µM
[28] = second compound 10 µM, first compound 1 µM
[29] = second compound 10 µM, first compound 3.16 µM
[30] = second compound 10 µM, first compound 10 µM
[31] = second compound 0.1 µM, first compound 0.00316 µM
[32] = second compound 0.1 µM, first compound 0.01 µM
[33] = second compound 0.316 µM, first compound 0.00316 µM
[34] = second compound 0.316 µM, first compound 0.01 µM
[35] = second compound 1 µM, first compound 0.00316 µM
[36] = second compound 1 µM, first compound 0.01 µM
[37] = second compound 3.16 µM, first compound 0.00316 µM
[38] = second compound 3.16 µM, first compound 0.01 µM
[39] = second compound 10 µM, first compound 0.00316 µM
[40] = second compound 10 µM, first compound 0.01 µM
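Further: spheroids exposed to agents for seven days before reading.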

Row | Structure (SMILES) | IC50 (second compound 0.1 µM) [µM] | IC50 (second compound 0.316 µM) [µM] | IC50 (second compound 1 µM) [µM] | IC50 (second compound 3.16 µM) [µM] | IC50 (second compound 10 µM) [µM] | viability, T/C [1] [%] | viability, T/C [2] [%] | viability, T/C [3] [%] | viability, T/C [4] [%] | viability, T/C [7] [%] | viability, T/C [8] [%] | viability, T/C [9] [%] | viability, T/C [10] [%] | viability, T/C [13] [%] | viability, T/C [14] [%] | viability, T/C [15] [%] | viability, T/C [19] [%] | viability, T/C [20] [%] | viability, T/C [25] [%] | viability, T/C [26] [%] | other results
1 | CC(C)c1c(-c2ccccc2)nc2c(C#N)c[nH]n2c1=O + CC(CO)NC(=O)c1cc(-c2ccc(Cl)cc2)nn(-c2cnn(C)c2)c1=O | > 10 | > 10 | > 10 | > 10 | > 10 | 100 | 97.7 | 99.6 | 101 | 113 | 109 | 89.5 | 93.7 | 107 | 106 | 98 | 101 | 95.3 | 98.2 | 82.5 | viability, T/C [5]: 104%; viability, T/C [6]: 105%; viability, T/C [11]: 96.2%; viability, T/C [12]: 102%; viability, T/C [16]: 102%; viability, T/C [17]: 104%; viability, T/C [18]: 100%; viability, T/C [21]: 94.5%; viability, T/C [22]: 96.8%; viability, T/C [23]: 92.4%; viability, T/C [24]: 87.8%; viability, T/C [27]: 93.5%; viability, T/C [28]: 86.3%; viability, T/C [29]: 87.4%; viability, T/C [30]: 96.6%
2 | CC[C@@]1(O)C(=O)OCc2c1cc1n(c2=O)Cc2cc3c(CN(C)C)c(O)ccc3nc2-1 + Cc1ccccc1N=Nc1ccc(NC(=O)c2ccnn2C)c(C)c1 | > 0.1 | > 0.1 | > 0.1 | > 0.1 | > 0.1 | 79.4 | 92.1 |  |  | 111 | 91.2 |  |  | 87.3 | 95 |  | 95.9 | 87.9 | 101 | 106 | viability, T/C (second compound 0.1 µM, first compound 0.000316 µM): 88.5%; viability, T/C (second compound 0.1 µM, first compound 0.001 µM): 105%; viability, T/C [31]: 113%; viability, T/C [32]: 109%; viability, T/C (second compound 0.316 µM, first compound 0.000316 µM): 114%; viability, T/C (second compound 0.316 µM, first compound 0.001 µM): 110%; viability, T/C [33]: 90.8%; viability, T/C [34]: 98.8%; viability, T/C (second compound 1 µM, first compound 0.000316 µM): 97.9%; viability, T/C (second compound 1 µM, first compound 0.001 µM): 105%; viability, T/C [35]: 89.5%; viability, T/C [36]: 93.2%; viability, T/C (second compound 3.16 µM, first compound 0.000316 µM): 111%; viability, T/C (second compound 3.16 µM, first compound 0.001 µM): 105%; viability, T/C [37]: 96.1%; viability, T/C [38]: 98.2%; viability, T/C (second compound 10 µM, first compound 0.000316 µM): 102%; viability, T/C (second compound 10 µM, first compound 0.001 µM): 113%; viability, T/C [39]: 95.5%; viability, T/C [40]: 104%
3 | COc1cc(C2c3cc4c(cc3C(OC3OC5COC(C)OC5C(O)C3O)C3COC(=O)C23)OCO4)cc(OC)c1O (stereo not given) + Cc1ccccc1N=Nc1ccc(NC(=O)c2ccnn2C)c(C)c1 | > 10 | > 10 | > 10 | > 10 | > 10 | 104 | 101 | 96 | 101 | 99.7 | 84.7 | 107 | 116 | 95.9 | 105 | 98.7 | 93.4 | 97.5 | 106 | 102 | viability, T/C [5]: 95.7%; viability, T/C [6]: 89.7%; viability, T/C [11]: 114%; viability, T/C [12]: 105%; viability, T/C [16]: 88.9%; viability, T/C [17]: 99.1%; viability, T/C [18]: 109%; viability, T/C [21]: 93.7%; viability, T/C [22]: 108%; viability, T/C [23]: 107%; viability, T/C [24]: 114%; viability, T/C [27]: 107%; viability, T/C [28]: 128%; viability, T/C [29]: 106%; viability, T/C [30]: 99.4%
4 | COc1cccc2c1C(=O)c1c(O)c3c(c(O)c1C2=O)CC(O)(C(=O)CO)CC3OC1CC(N)C(O)C(C)O1 (stereo not given) + Cc1ccccc1N=Nc1ccc(NC(=O)c2ccnn2C)c(C)c1 | > 10 | 8.8 | > 10 | > 10 | > 10 | 87 | 92.3 | 102 | 91.7 | 80.4 | 92.6 | 95.9 | 85.3 | 97.2 | 99 | 102 | 88.3 | 92.1 | 95.2 | 95.1 | viability, T/C [5]: 83.3%; viability, T/C [6]: 60.2%; viability, T/C [11]: 72.2%; viability, T/C [12]: 47.2%; viability, T/C [16]: 86.3%; viability, T/C [17]: 81.6%; viability, T/C [18]: 71.9%; viability, T/C [21]: 97.7%; viability, T/C [22]: 107%; viability, T/C [23]: 86.8%; viability, T/C [24]: 78%; viability, T/C [27]: 94.4%; viability, T/C [28]: 98.7%; viability, T/C [29]: 96%; viability, T/C [30]: 78.7%
5 | Nc1ccn(C2OC(CO)C(O)C2(F)F)c(=O)n1 (stereo not given) + Cc1ccccc1N=Nc1ccc(NC(=O)c2ccnn2C)c(C)c1 | > 10 | 0.282 | > 10 | > 10 | > 10 | 103 | 93.1 | 69.5 | 56.9 | 91.2 | 101 | 42.1 | 39.1 | 95.5 | 93.7 | 62.8 | 84.5 | 81.3 | 94 | 111 | viability, T/C [5]: 65.7%; viability, T/C [6]: 64.6%; viability, T/C [11]: 41%; viability, T/C [12]: 57%; viability, T/C [16]: 47.4%; viability, T/C [17]: 59.6%; viability, T/C [18]: 53.6%; viability, T/C [21]: 65.9%; viability, T/C [22]: 55.8%; viability, T/C [23]: 65.8%; viability, T/C [24]: 68.7%; viability, T/C [27]: 93.5%; viability, T/C [28]: 87.8%; viability, T/C [29]: 71.2%; viability, T/C [30]: 76.5%
6 | Nc1ncn(C2CC(O)C(CO)O2)c(=O)n1 (stereo not given) + Cc1ccccc1N=Nc1ccc(NC(=O)c2ccnn2C)c(C)c1 | > 1 | > 1 | > 1 | > 1 | > 1 | 91.7 | 98.6 | 91.5 | 111 | 93.6 | 82.9 | 102 | 84.5 | 105 | 107 | 103 | 107 | 92.5 | 108 | 106 | viability, T/C [31]: 102%; viability, T/C [32]: 104%; viability, T/C [33]: 81%; viability, T/C [34]: 91.6%; viability, T/C [35]: 93.2%; viability, T/C [36]: 104%; viability, T/C [16]: 113%; viability, T/C [37]: 109%; viability, T/C [38]: 97.3%; viability, T/C [21]: 103%; viability, T/C [22]: 97.4%; viability, T/C [39]: 116%; viability, T/C [40]: 114%; viability, T/C [27]: 115%; viability, T/C [28]: 114%
